Test results reported in patent US11793823B2, “Compounds and pharmaceutical uses thereof” (SyneuRx International (Taiwan) Corp., priority 2020, dated 2023).

Molecular target: human D-amino acid oxidase (hDAAO) (Homo sapiens (Human), UniProt P14920)
Assay: In vitro human D-amino acid oxidase (hDAAO) activity, D-Serine/Amplex Red fluorescence
Assay type: biochemical
Settings: D-Serine substrate, 20 min
Procedure: The hDAAO inhibitory activities were measured by using D-Serine as a substrate to produce H2O2. The produced H2O2 would be oxidized by peroxidase, and the produced free radicals would further react with Amplex Red reagent to emit fluorescence. The intensity of fluorescence at 590 nm would be measured to represent the activity of hDAAO. All compounds were dissolved in DMSO. Each compound was diluted with DMSO in 3-fold serial dilution to create a dose response curve. Each sample was added in triplicate, 1 µL/well, into 96-well black plates. Positive control wells were added with 1 μL of DMSO. Then 49 μL of assay buffer (100 mM Tris-HCl, pH 8.5) containing 1.2 ng/mL hDAAO, 900 nM FAD, 0.2 units/mL HRP, and 100 μM Amplex Red was added to each well of the plate using a multichannel pipette. Next, 50 μL of 100 mM D-Serine in assay buffer was added. The reaction plates were then incubated in the dark at room temperature. The fluorescence readout was detected at 0 and 20 mins by Molecular Device Gemini EM fluorescence reader using the following settings: excitation filter 530 nm, and emission filter 590 nm. The percentage of inhibition values for each well was calculated with the following equation: The percentage of inhibition=(fluorescence sample, 20 min−fluorescence sample, 0 min)/(fluorescence DMSO, 20 min−fluorescence DMSO, 0 min)×100%
The nonlinear curve fitting model in GraphPad Prism was used to calculate IC50 value for each compound.

Chain of human D-amino acid oxidase (hDAAO) (P14920 whole entry): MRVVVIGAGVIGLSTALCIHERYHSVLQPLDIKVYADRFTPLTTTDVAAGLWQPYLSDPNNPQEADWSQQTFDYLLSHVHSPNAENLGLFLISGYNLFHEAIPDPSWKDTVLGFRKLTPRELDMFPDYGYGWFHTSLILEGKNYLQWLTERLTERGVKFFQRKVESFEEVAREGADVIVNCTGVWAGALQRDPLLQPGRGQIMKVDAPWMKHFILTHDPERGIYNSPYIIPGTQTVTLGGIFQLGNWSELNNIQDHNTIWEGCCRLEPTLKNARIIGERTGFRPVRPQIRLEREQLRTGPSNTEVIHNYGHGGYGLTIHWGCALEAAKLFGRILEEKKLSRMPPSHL

`O=C(Oc1cc(C(=O)Oc2cc(C(=O)Oc3cc(C(=O)Oc4cc(C(=O)O[C@H]5OC[C@@H](OC(=O)c6cc(O)c(O)c(OC(=O)c7cc(O)c(O)c(OC(=O)c8cc(O)c(O)c(OC(=O)c9cc(O)c(O)c(OC(=O)c%10cc(O)c(O)c(O)c%10)c9)c8)c7)c6)[C@H](OC(=O)c6cc(O)c(O)c(OC(=O)c7cc(O)c(O)c(OC(=O)c8cc(O)c(O)c(OC(=O)c9cc(O)c(O)c(OC(=O)c%10cc(O)c(O)c(O)c%10)c9)c8)c7)c6)[C@H]5OC(=O)c5cc(O)c(O)c(OC(=O)c6cc(O)c(O)c(OC(=O)c7cc(O)c(O)c(OC(=O)c8cc(O)c(O)c(OC(=O)c9cc(O)c(O)c(O)c9)c8)c7)c6)c5)cc(O)c4O)cc(O)c3O)cc(O)c2O)cc(O)c1O)c1cc(O)c(O)c(O)c1` [Compound 123, (2R,3R,4S,5R)-tetrahydro-2H-pyran-2,3,4,5-tetrayl tetrakis(3-((3-((3-((3,4-dihydroxy-5-((3,4,5-trihydroxybenzoyl)oxy)benzoyl)oxy)-4,5-dihydroxybenzoyl)oxy)-4,5-dihydroxybenzoyl)oxy)-4,5-dihydroxybenzoate)] and `O=C(OC[C@H]1O[C@H](OC(=O)c2cc(O)c(O)c(OC(=O)c3cc(O)c(O)c(OC(=O)c4cc(O)c(O)c(OC(=O)c5cc(O)c(O)c(OC(=O)c6cc(O)c(O)c(O)c6)c5)c4)c3)c2)[C@H](OC(=O)c2cc(O)c(O)c(OC(=O)c3cc(O)c(O)c(OC(=O)c4cc(O)c(O)c(OC(=O)c5cc(O)c(O)c(OC(=O)c6cc(O)c(O)c(O)c6)c5)c4)c3)c2)[C@@H]1OC(=O)c1cc(O)c(O)c(OC(=O)c2cc(O)c(O)c(OC(=O)c3cc(O)c(O)c(OC(=O)c4cc(O)c(O)c(OC(=O)c5cc(O)c(O)c(O)c5)c4)c3)c2)c1)c1cc(O)c(O)c(OC(=O)c2cc(O)c(O)c(OC(=O)c3cc(O)c(O)c(OC(=O)c4cc(O)c(O)c(OC(=O)c5cc(O)c(O)c(O)c5)c4)c3)c2)c1` [Compound 140, (2R,3R,4R,5R)-5-(((3-((3-((3-((3,4-dihydroxy-5-((3,4,5-trihydroxybenzoyl)oxy)benzoyl)oxy)-4,5-dihydroxybenzoyl)oxy)-4,5-dihydroxybenzoyl)oxy)-4,5-dihydroxybenzoyl)oxy)methyl)tetrahydrofuran-2,3,4-triyl tris(3-((3-((3-((3,4-dihydroxy-5-((3,4,5-trihydroxybenzoyl)oxy)benzoyl)oxy)-4,5-dihydroxybenzoyl)oxy)-4,5-dihydroxybenzoyl)oxy)-4,5-dihydroxybenzoate)] are within 1.5-fold of each other in IC50: 2.4 nM for the first, 3 nM for the second.

First: O=C(Oc1cc(C(=O)Oc2cc(C(=O)O[C@@H]3OC[C@@H](OC(=O)c4cc(O)c(O)c(OC(=O)c5cc(O)c(O)c(OC(=O)c6cc(O)c(O)c(O)c6)c5)c4)[C@H](OC(=O)c4cc(O)c(O)c(OC(=O)c5cc(O)c(O)c(OC(=O)c6cc(O)c(O)c(O)c6)c5)c4)[C@H]3OC(=O)c3cc(O)c(O)c(OC(=O)c4cc(O)c(O)c(OC(=O)c5cc(O)c(O)c(O)c5)c4)c3)cc(O)c2O)cc(O)c1O)c1cc(O)c(O)c(O)c1 [Compound 126, (2S,3R,4S,5R)-tetrahydro-2H-pyran-2,3,4,5-tetrayl tetrakis(3-((3,4-dihydroxy-5-((3,4,5-trihydroxybenzoyl)oxy)benzoyl)oxy)-4,5-dihydroxybenzoate)]
Second: O=C(OC[C@H]1O[C@H](OC(=O)c2cc(O)c(O)c(OC(=O)c3cc(O)c(O)c(OC(=O)c4cc(O)c(O)c(O)c4)c3)c2)[C@H](OC(=O)c2cc(O)c(O)c(OC(=O)c3cc(O)c(O)c(OC(=O)c4cc(O)c(O)c(O)c4)c3)c2)[C@@H]1OC(=O)c1cc(O)c(O)c(OC(=O)c2cc(O)c(O)c(OC(=O)c3cc(O)c(O)c(O)c3)c2)c1)c1cc(O)c(O)c(OC(=O)c2cc(O)c(O)c(OC(=O)c3cc(O)c(O)c(O)c3)c2)c1 [Compound 136, (2R,3R,4R,5R)-5-(((3-((3,4-dihydroxy-5-((3,4,5-trihydroxybenzoyl)oxy)benzoyl)oxy)-4,5-dihydroxybenzoyl)oxy)methyl)tetrahydrofuran-2,3,4-triyl tris(3-((3,4-dihydroxy-5-((3,4,5-trihydroxybenzoyl)oxy)benzoyl)oxy)-4,5-dihydroxybenzoate)]
The IC50 of the first is 1.7-fold lower: 3.6 nM for the first, 6 nM for the second. The first is the more potent here.

`O=C(Oc1cc(C(=O)Oc2cc(C(=O)Oc3cc(C(=O)O[C@@H]4OC[C@@H](OC(=O)c5cc(O)c(O)c(OC(=O)c6cc(O)c(O)c(OC(=O)c7cc(O)c(O)c(OC(=O)c8cc(O)c(O)c(O)c8)c7)c6)c5)[C@H](OC(=O)c5cc(O)c(O)c(OC(=O)c6cc(O)c(O)c(OC(=O)c7cc(O)c(O)c(OC(=O)c8cc(O)c(O)c(O)c8)c7)c6)c5)[C@H]4OC(=O)c4cc(O)c(O)c(OC(=O)c5cc(O)c(O)c(OC(=O)c6cc(O)c(O)c(OC(=O)c7cc(O)c(O)c(O)c7)c6)c5)c4)cc(O)c3O)cc(O)c2O)cc(O)c1O)c1cc(O)c(O)c(O)c1` [Compound 128, (2S,3R,4S,5R)-tetrahydro-2H-pyran-2,3,4,5-tetrayl tetrakis(3-((3-((3,4-dihydroxy-5-((3,4,5-trihydroxybenzoyl)oxy)benzoyl)oxy)-4,5-dihydroxybenzoyl)oxy)-4,5-dihydroxybenzoate)] and `O=C(OC[C@H]1O[C@@H](OC(=O)c2cc(O)c(O)c(OC(=O)c3cc(O)c(O)c(OC(=O)c4cc(O)c(O)c(OC(=O)c5cc(O)c(O)c(O)c5)c4)c3)c2)[C@H](OC(=O)c2cc(O)c(O)c(OC(=O)c3cc(O)c(O)c(OC(=O)c4cc(O)c(O)c(OC(=O)c5cc(O)c(O)c(O)c5)c4)c3)c2)[C@@H]1OC(=O)c1cc(O)c(O)c(OC(=O)c2cc(O)c(O)c(OC(=O)c3cc(O)c(O)c(OC(=O)c4cc(O)c(O)c(O)c4)c3)c2)c1)c1cc(O)c(O)c(OC(=O)c2cc(O)c(O)c(OC(=O)c3cc(O)c(O)c(OC(=O)c4cc(O)c(O)c(O)c4)c3)c2)c1` [Compound 146, (2S,3R,4R,5R)-5-(((3-((3-((3,4-dihydroxy-5-((3,4,5-trihydroxybenzoyl)oxy)benzoyl)oxy)-4,5-dihydroxybenzoyl)oxy)-4,5-dihydroxybenzoyl)oxy)methyl)tetrahydrofuran-2,3,4-triyl tris(3-((3-((3,4-dihydroxy-5-((3,4,5-trihydroxybenzoyl)oxy)benzoyl)oxy)-4,5-dihydroxybenzoyl)oxy)-4,5-dihydroxybenzoate)] are within 1.5-fold of each other in IC50: 3.3 nM for the first, 4 nM for the second.

Compared with `O=C(OC[C@H]1O[C@H](OC(=O)c2cc(O)c(O)c(OC(=O)c3cc(O)c(O)c(O)c3)c2)[C@H](OC(=O)c2cc(O)c(O)c(OC(=O)c3cc(O)c(O)c(O)c3)c2)[C@@H]1OC(=O)c1cc(O)c(O)c(OC(=O)c2cc(O)c(O)c(O)c2)c1)c1cc(O)c(O)c(OC(=O)c2cc(O)c(O)c(O)c2)c1` [Compound 134, (2R,3R,4R,5R)-5-(((3,4-dihydroxy-5-((3,4,5-trihydroxybenzoyl)oxy)benzoyl)oxy)methyl)tetrahydrofuran-2,3,4-triyl tris(3,4-dihydroxy-5-((3,4,5-trihydroxybenzoyl)oxy)benzoate)], `O=C(OC[C@H]1O[C@@H](OC(=O)c2cc(O)c(O)c(OC(=O)c3cc(O)c(O)c(O)c3)c2)[C@H](OC(=O)c2cc(O)c(O)c(OC(=O)c3cc(O)c(O)c(O)c3)c2)[C@@H]1OC(=O)c1cc(O)c(O)c(OC(=O)c2cc(O)c(O)c(O)c2)c1)c1cc(O)c(O)c(OC(=O)c2cc(O)c(O)c(O)c2)c1` [Compound 142, (2S,3R,4R,5R)-5-(((3,4-dihydroxy-5-((3,4,5-trihydroxybenzoyl)oxy)benzoyl)oxy)methyl)tetrahydrofuran-2,3,4-triyl tris(3,4-dihydroxy-5-((3,4,5-trihydroxybenzoyl)oxy)benzoate)] is 2.4-fold higher in IC50: 8 nM for the first, 19 nM for the second. The first is the more potent here.

First: O=C(OC[C@H]1O[C@@H](OC(=O)c2cc(O)c(O)c(OC(=O)c3cc(O)c(O)c(OC(=O)c4cc(O)c(O)c(O)c4)c3)c2)[C@H](OC(=O)c2cc(O)c(O)c(OC(=O)c3cc(O)c(O)c(OC(=O)c4cc(O)c(O)c(O)c4)c3)c2)[C@@H]1OC(=O)c1cc(O)c(O)c(OC(=O)c2cc(O)c(O)c(OC(=O)c3cc(O)c(O)c(O)c3)c2)c1)c1cc(O)c(O)c(OC(=O)c2cc(O)c(O)c(OC(=O)c3cc(O)c(O)c(O)c3)c2)c1 [Compound 144, (2S,3R,4R,5R)-5-(((3-((3,4-dihydroxy-5-((3,4,5-trihydroxybenzoyl)oxy)benzoyl)oxy)-4,5-dihydroxybenzoyl)oxy)methyl)tetrahydrofuran-2,3,4-triyl tris(3-((3,4-dihydroxy-5-((3,4,5-trihydroxybenzoyl)oxy)benzoyl)oxy)-4,5-dihydroxybenzoate)]
Second: O=C(OC[C@H]1O[C@@H](OC(=O)c2cc(O)c(O)c(OC(=O)c3cc(O)c(O)c(OC(=O)c4cc(O)c(O)c(OC(=O)c5cc(O)c(O)c(OC(=O)c6cc(O)c(O)c(O)c6)c5)c4)c3)c2)[C@H](OC(=O)c2cc(O)c(O)c(OC(=O)c3cc(O)c(O)c(OC(=O)c4cc(O)c(O)c(OC(=O)c5cc(O)c(O)c(OC(=O)c6cc(O)c(O)c(O)c6)c5)c4)c3)c2)[C@@H]1OC(=O)c1cc(O)c(O)c(OC(=O)c2cc(O)c(O)c(OC(=O)c3cc(O)c(O)c(OC(=O)c4cc(O)c(O)c(OC(=O)c5cc(O)c(O)c(O)c5)c4)c3)c2)c1)c1cc(O)c(O)c(OC(=O)c2cc(O)c(O)c(OC(=O)c3cc(O)c(O)c(OC(=O)c4cc(O)c(O)c(OC(=O)c5cc(O)c(O)c(O)c5)c4)c3)c2)c1 [Compound 148, (2S,3R,4R,5R)-5-(((3-((3-((3-((3,4-dihydroxy-5-((3,4,5-trihydroxybenzoyl)oxy)benzoyl)oxy)-4,5-dihydroxybenzoyl)oxy)-4,5-dihydroxybenzoyl)oxy)-4,5-dihydroxybenzoyl)oxy)methyl)tetrahydrofuran-2,3,4-triyl tris(3-((3-((3-((3,4-dihydroxy-5-((3,4,5-trihydroxybenzoyl)oxy)benzoyl)oxy)-4,5-dihydroxybenzoyl)oxy)-4,5-dihydroxybenzoyl)oxy)-4,5-dihydroxybenzoate)]
The IC50 of the first is 2-fold higher: 8 nM for the first, 4 nM for the second. The second is the more potent here.
